Results: article PMC4575030 (PLoS ONE, 2015)

Experiments:
[1] = system: C-fiber nociceptors; assay: In vivo teased-fiber recording from tibial nerve after CFA, C-fibers; set-up: species or system rat; conditions: for Heat response threshold of C-fiber nociceptors: n = 9
Procedure: A total of 55 adult, male, Sprague–Dawley rats (Harlan, Indianapolis, IN) weighing 300–350 g were used for electrophysiology. To ensure that electrophysiology studies were performed on rats with mechanical hyperalgesia, behavioral measures of mechanical hyperalgesia were obtained before and at 24 h after administration of CFA (and just prior to the electrophysiological studies). Mechanical hyperalgesia was assessed by determining the frequency of paw withdrawal evoked by mechanical stimulation using a 26 g Semmes-Weinstein von Frey monofilament (Stoelting, Wood Dale, IL). Rats were placed on an elevated wire mesh platform under individual plastic cages and acclimated to the testing environment for 30 minutes prior to testing. The monofilament was applied to the mid-plantar surface of the hindpaw ten times for 1–2 s each with an inter-stimulus interval of approximately 5–10 s and the paw withdrawal frequency (percent) was determined. Baseline measures were determined for each rat for three consecutive days prior to injection of CFA. Mechanical hyperalgesia was defined as an increase in the paw withdrawal frequency.
Rats were initially anesthetized by intramuscular injection of ketamine (100 mg/kg) and xylazine ([…]). […] Core body temperature was maintained at 37°C using a feedback-controlled heating pad (Harvard Apparatus, Holliston, MA, USA).
Recordings were made from cutaneous afferent fibers of the left tibial nerve using a teased-fiber approach. The tibial nerve was dissected from the surrounding tissue and the overlaying skin was sewn to a metal ring to form a pool that was filled with warm mineral oil. The tibial nerve was placed onto a mirror platform for fine dissection with sharpened fine forceps (Fine Science Tools, Foster City, CA, USA). Teased fibers were placed onto a tungsten wire electrode and action potentials were recorded extracellularly. […] Only fibers with clearly discriminated single action potentials were studied. Responses of individual fibers were analyzed off-line using the Spike2 data analysis program (Cambridge Electronic Design, Cambridge, UK).
Afferent fibers were found by their ongoing spontaneous activity and by mechanically stimulating the plantar surface of the hind paw with the experimenter's finger or von Frey monofilaments. Once a single fiber was identified that was excited by mild pinching but not light touch, its mechanical receptive field was marked on the skin using a felt-tipped pen.
Conduction velocity was determined by electrically stimulating the skin outside the fiber’s receptive field with pin electrodes (200 μs pulse width at 0.5 Hz) to electrically activate the fiber. The fiber was stimulated at 1.5 times its electrical threshold and the conduction latency was measured from the time of the electrical stimulus artifact to the evoked action potential. Conduction distance was determined by measuring the distance from the fiber's receptive field to the recording electrode. Conduction velocity (m/s) was calculated by dividing conduction distance by conduction latency. Fibers were classified as Aδ-fiber nociceptors if they had conduction velocities between 2.4–25.0 m/s and as C-fiber nociceptors if conduction velocity was < 2.4 m/s.
Nociceptors were classified functionally according to their responsiveness to mechanical and heat stimulation. Mechanical stimuli used to classify units included light brushing with the tip of a cotton swab, mildly pinching with a pair of forceps, and application of von Frey filaments. Mechanical response thresholds were determined using a series of von Frey monofilaments and defined as the weight (g) required to evoke at least one action potential when applied to the receptive field for 1–2 s. Heat stimuli were delivered using a feedback-controlled Peltier device (Yale Electronics, New Haven, CT) with a contact area of 1 cm^2. […]

[2] = system: rat spinal nerve ligation model; assay: Tactile allodynia following spinal nerve ligation (SNL); assay type: in vivo; conditions: 30 mg/kg, 120 min after dosing, day 21 after SNL; not statistically significant (p = 0.99)
Excerpt: A decrease in tactile response threshold, using calibrated von Frey filaments (Stoelting Co., Wood Dale, IL), was used as a measure of tactile allodynia following spinal nerve ligation (SNL). Prior to surgery, each animal underwent baseline testing to determine suitability for the assay. Briefly, animals were placed on a raised platform with a grid meshed floor. The distance between the mesh was ¼”. Once acclimated, each animal received a series of trials according to the up-down method described by Dixon. Animals showing a response to less than 4 g were deemed already sensitive to the stimulus and were removed. A maximal fiber of 15 g was employed as a cut-off threshold. Surgery was then performed with a procedure slightly modified by that reported by Kim and Chung. Briefly, the left L5 spinal nerve was carefully isolated from the surrounding tissue. Using 5–0 silk suture, a tight ligature was placed around L5 nerve. Muscle and skin were then closed using 4–0 absorbable suture and wound clips. Animals were allowed to recover and were carefully monitored for seven days to ensure proper healing and ensure there was no mutilation of the affected limb. On day 21 post-surgery, animals were again tested to ensure the development of tactile allodynia. […] Animals were then randomized into groups and dosed with the test compound, gabapentin, or vehicle and assessed as stated above. […]

[3] = system: Nav1.7; set-up: method as in PMID 21634377; conditions: extrapolated; cited from earlier work
[4] = 30 minutes after i.v. injection
[5] = 60 minutes after i.v. injection

Compound: CC(=O)Nc1cccc(Nc2ncnc(N3CCC(OCc4ccc(OC(F)(F)F)cc4)CC3)n2)c1C [Compound 52, N-(2-methyl-3-((4-(4-((4-(trifluoromethoxy)benzyl)oxy)-1-piperidinyl)-1,3,5-triazin-2-yl)amino)phenyl)acetamide]
- Mean cumulative number of action potentials evoked by all heat stimuli, C-fibers [1, 4]: 19.2 ± 3.6
- Mean number of action potentials evoked by a suprathreshold mechanical stimulus (250 mN), C-fibers [1, 4]: 19.9 ± 5.4
- Mechanical response threshold of C-fiber nociceptors [1, 4]: 60.4 ± 9.8 mN
- Heat response threshold of C-fiber nociceptors [1, 4]: 47.0 °C
- Number of action potentials evoked by heat stimuli, C-fibers ([1]; 30 minutes after i.v. injection, 48°C and 50°C reduced): reduced the number of action potentials evoked by heat stimuli
- Mean number of action potentials evoked by a suprathreshold mechanical stimulus (250 mN), C-fibers [1, 5]: 11.6 ± 3.2
- Mechanical response threshold of C-fiber nociceptors [1, 5]: 60.1 ±9.1 mN
- Mean cumulative number of action potentials evoked by all heat stimuli, C-fibers ([1]; before injection): 39.2 ± 6.5
- Mean number of action potentials evoked by a suprathreshold mechanical stimulus (250 mN), C-fibers ([1]; before injection, n = 8): 28.9 ± 6.2
- Heat response threshold of C-fiber nociceptors ([1]; before injection): 45.0 °C
- Mechanical response threshold of C-fiber nociceptors ([1]; before injection, n = 11): 44.5 ± 7.5 mN
- Time after beginning the injection at which the rate of ongoing spontaneous activity was significantly decreased ([1]; i.v. 2.5 mg over 15 min, remained decreased until 26 minutes): ≤ 12 min
- Spontaneous firing of C-fiber nociceptors, after compound ([1]; one day after CFA, after i.v. 2.5 mg (approximately 8 mg/kg)): ~0.2 Hz
- Spontaneous firing of C-fiber nociceptors, before compound ([1]; one day after CFA, before i.v. injection): approximately 0.7 Hz
- Reversal of tactile allodynia compared to the vehicle group [2]: 15%
- Preference for inactivated versus non-inactivated Nav1.7 [3]: 100 fold
